Consider one sequence from article PMC5842390, “Protection Efficacy of C5A Against Vaginal and Rectal HIV Challenges in Humanized Mice” (The Open Virology Journal, 2018).

Read-outs that look alike come from different tables or passages of the source. Ends that are not written are not given here.

The subject of one data set is HIV JR-CSF. It counts as in vivo, humanized BLT mice. To be noted: for Slope parameter (m) of median-effect plot: median-effect model, analogous to Hill coefficient; for EC50: sigmoidal dose-response (variable slope) model, 6.25-200 µM, n=10 per concentration. The source says: Humanized BLT mice were created as described previously, by implanting 1-mm^3 pieces of human fetal liver and thymus tissues (Advanced Bioscience Resources) under the kidney capsule of 6- to 8-week-old female NSG mice (Jackson Laboratories) bred at The Scripps Research Institute (TSRI). Each cohort was produced with tissues from a single donor. CD34+ hematopoietic stem and progenitor cells (HSPC) were purified from autologous fetal liver tissue, isolated by magnetic bead selection for CD34+ cells (Miltenyi), phenotyped by flow cytometry, and cryopreserved until injection (200,000-350,000 CD34+ cells) into mice 3 weeks after fetal liver and thymus tissue implantation. Human cell population reconstitution in peripheral blood was confirmed by flow cytometry as described previously. Briefly, the degree of humanization of the BLT mice was evaluated at 20 weeks of age (10 weeks post-CD34+ HSPC injection) by analysis of percentages of human CD45+ cells and human CD45+ CD4+ CD3+ cells in peripheral blood by FACS. Mice with <65% human CD45+ cells and <70% human CD45+ CD4+ CD3+ cells were not used for HIV exposure experiments. Mice were kept at the Department of Animal Resources at TSRI in accordance with protocols approved by the TSRI Institutional Animal Care and Use Committee.
Solutions of C5A peptides were prepared in phosphate buffered saline (PBS). After verifying the reconstitution of mice with human cells, a dose ranging study was conducted to determine the EC50 of C5A for preventing vaginal and rectal HIV infection. Stocks of HIV JR-CSF were prepared as previously described and standardized by p24 ELISA. Prior to inoculation, mice were anesthetized with isoflurane. Aliquots of C5A in PBS (5 µL) were administered vaginally or rectally in decreasing concentrations (200, 100, 50, 25, 12.5 and 6.25 µM; n=10 mice per concentration). Fifteen minutes post-C5A topical administration, mice were challenged (vaginal challenge for vaginal C5A administration, rectal challenge for C5A rectal administration) with HIV.
Infection of BLT mice was analyzed by quantifying HIV RNA levels in peripheral blood (plasma) using one-step reverse transcriptase quantitative real-time PCR (ABI custom TaqMan Assays-by-Design) according to the manufacturer’s instructions. Primers were 5-[…]-3 and 5-TGCTTGATGT CCCCCCACT-3, and MGB-probe 5-FAM-[…]-Q-3, where FAM is 6-carboxyfluorescein [36-38, 40, 42, 44-47, 52-54]. The assay sensitivity was of […] 400 RNA copies per mL.
Data were analyzed using GraphPad Prism (version 7.00, GraphPad Software, Inc., La Jolla, CA). Analytic simulations of dose-response curves using the median-effect principle and mass-action law, and its combination index theorem were carried out using CompuSyn.

For data set [1], the system named is cervical epithelial cells. The following applies: at a concentration of 10- to 100-fold greater than that which blocks HIV infection; cited from earlier work. An excerpt: The short amphipathic helical peptide SWLRDIWDWICEVLSDFK called C5A, was originally identified by the Chisari lab as an active anti-hepatitis C virus (HCV) agent. The C5A amino acid sequence encompasses the region that permits the anchoring of the HCV nonstructural protein 5A (NS5A) into the ER membrane by an in-plane amphipathic alpha-helix (Fig. 1).

The conditions of data set [2]: seminal plasma, cervical and vaginal fluids; cited from earlier work. An excerpt:
(§1) In the absence of a safe and effective vaccine, there is an imperative demand for effective agents to reduce the 7,000 new HIV infections occurring every day. An attractive possibility is to identify the best drugs and drug combinations, delivered by optimal nBP methods such Intravaginal Rings (IVRs) for vaginal delivery and gels or enemas for rectal protection. We previously reported that C5A, a short, amphipathic, 18 amino acid (SWLRDIWDWICEVLSDFK) helical peptide, inhibits in vitro infectivity of a broad range of primary HIV isolates in various primary target cells. In this study, we ...

The next data set concerns HIV. To be noted: cited from earlier work.
Source text: as §1

The subject of data set [3] is simian-human immunodeficiency virus (SHIV-162P3). To be noted: vaginal application of C5A; ref 58 (b36 prints ref 57); cited from earlier work.
Source text: as §1, with “... || Following these studies with unformulated C5A solutions applied topically, the next goal is to formulate C5A, alone and in combination with other antiretroviral agents, into murine intravaginal rings to evaluate sustained topical delivery approaches for protection against vaginal and rectal HIV challenges. We plan on using a combination of drugs with distinct mechanisms of action.” for “...”

The conditions of data set [4]: macaques vaginally treated with repeated C5A applications; cited from earlier work. The source says:
Following these studies with unformulated C5A solutions applied topically, the next goal is to formulate C5A, alone and in combination with other antiretroviral agents, into murine intravaginal rings to evaluate sustained topical delivery approaches for protection against vaginal and rectal HIV challenges. We plan on using a combination of drugs with distinct mechanisms of action.

For a further data set, the system named is HSV. The following applies: Vero cells, human dendritic cells, primary genital epithelial cells in vitro, human epidermis ex vivo; cited from earlier work. The source says:
Previous studies have shown that C5A inhibits HSV infection of Vero cells, human dendritic cells and primary genital epithelial cells in vitro as well as human epidermis (epidermal sheets) ex vivo, and that it inhibits acyclovir- and ganciclovir-resistant HSV isolates. Remarkably, in an in vitro transwell assay, C5A prevented HIV transmigration by preserving the integrity of the genital epithelium that ...

In general, EC50 refers to the concentration at which the effect is half-maximal. Take SWLRDIWDWICEVLSDFK [C5A]: the “Slope parameter (m) of median-effect plot” value turned out to be 7.7 ± 1.2 in the data set on HIV JR-CSF (rectal compartment) and 7.6 ± 1.2 in the data set with HIV JR-CSF (vaginal compartment). For the same sequence, the EC50 with HIV JR-CSF (rectal dosing, read-out: EC50 for protection against rectal HIV challenge) was determined as 25.7 µM; with HIV JR-CSF (vaginal dosing, read-out: EC50 for protection against vaginal HIV challenge) it was 32.5 µM. Also, in data set [1], the “Toxicity to cervical epithelial cells” value is recorded as “not toxic”. Also, the “Antiviral activities in genital fluids” value in data set [2] is listed as “maintains its antiviral activities”. In the data set on HIV (pH 5 to 7), the “Antiviral activity between pH 5 and 7” value is recorded as “keeps is antiviral activity”. Also, the “Antiviral activity at pH 8” value with HIV (pH 8) is reported as “loses its activity”. In addition, the “Protection against a vaginal challenge of HIV” value in the data set on HIV (topical vaginal administration of 200 µM C5A in PBS, humanized mice) is listed as 100%. Further, in data set [3], the “Macaques protected from SHIV-162P3 challenge” value is on record as 89%. Further, the “Signs of lesions or inflammation” value in data set [4] is given as “no signs of lesions or inflammation”. The “Inhibition of HSV infection” value in the data set with HSV is reported as “efficiently inhibits”.
